Test results taken from PubChem BioAssay (NCI).
Where “and” joins values, the source holds several entries; their conditions need not be identical. Equal entries are not always repeated.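 Cultured in 96-well plates, cells were exposed to test compound for 48 hours across five concentrations. GI50 is the concentration that inhibits growth by half. At the TGI there is no net growth.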

Assays:
Experiment in all cases: growth of human tumour cells (NCI), 48 h
HOP-62 NSCLC = test system: HOP-62 NSCLC
IGROV1 ovarian = test system: IGROV1 ovarian
M14 melanoma = test system: M14 melanoma
MDA-MB-435 = test system: MDA-MB-435
MOLT-4 leukemia = test system: MOLT-4 leukemia
OVCAR-3 ovarian = test system: OVCAR-3 ovarian
PC-3 prostate = test system: PC-3 prostate
SW-620 colon = test system: SW-620 colon
UACC-62 melanoma = test system: UACC-62 melanoma
SNB-19 CNS = test system: SNB-19 CNS

Structure (SMILES) | GI50 (HOP-62 NSCLC) | TGI (HOP-62 NSCLC) | GI50 (IGROV1 ovarian) | TGI (IGROV1 ovarian) | GI50 (M14 melanoma) | TGI (M14 melanoma) | GI50 (MDA-MB-435) | TGI (MDA-MB-435) | GI50 (MOLT-4 leukemia) | TGI (MOLT-4 leukemia) | GI50 (OVCAR-3 ovarian) | TGI (OVCAR-3 ovarian) | GI50 (PC-3 prostate) | TGI (PC-3 prostate) | GI50 (SW-620 colon) | TGI (SW-620 colon) | GI50 (UACC-62 melanoma) | TGI (UACC-62 melanoma) | TGI (SNB-19 CNS) | GI50 (SNB-19 CNS)
C=CC1=C(C)C(Cc2[nH]c(/C=c3\[nH]/c(=C/C4=NC(=O)C(C)/C4=C\C)c(C)c3CCC(=O)O)c(CCC(=O)OC)c2C)NC1=O (stereo unspecified) | 26.4 µM | 62.4 µM | 18.8 µM | 42.4 µM | 28.3 µM | 89.5 µM | 23.9 µM | 62 µM | 34.1 µM | > 100 µM | 20.1 µM | 39.4 µM | 32.9 µM | > 100 µM | 25.4 µM | 61.4 µM | 18.7 µM | 35.9 µM | – | –
Nc1n[n+]([O-])c2cnccc2[n+]1[O-] | – | > 100 µM | – | > 100 µM | – | > 100 µM | – | 38.5 µM | – | > 100 µM | – | > 100 µM | – | > 100 µM | – | > 100 µM | – | 84.9 µM | > 100 µM | –
Cc1[nH]ccc2cc3nc4ccccc4c3cc12 | 2.79 µM | 12.8 µM | 3.65 µM | 15.2 µM | 2.47 µM | 11.1 µM | 2.89 µM | 12.7 µM | 0.723 µM | 3.13 µM | 3.04 µM | 10.7 µM | 2.46 µM | 11.7 µM | 1.07 µM | 6.9 µM | 3.52 µM | 12.3 µM | 19.6 µM | 5.65 µM
CN(C)CCN1C(=O)c2cccc3c(-c4ccc5ncn(C6CCCCC6)c5c4)ccc(c23)C1=O | 1.69 µM | 6.75 µM | 1.12 µM | 5.86 µM | 1.7 µM | 3.61 µM | 2.71 µM | 11.1 µM | 0.446 µM | 10.1 µM | 2.28 µM | 8.78 µM | 1.63 µM | 5.75 µM | 1.06 µM | 11 µM | – | – | 20.1 µM | 1.88 µM
C[C@@H]1CCC2[C@@H](C)[C@H](OC(=O)CCC(=O)NCCNC(=O)Cc3cc(=O)oc4cc(N(C)C)ccc34)O[C@@H]3O[C@]4(C)CC[C@@H]1C23OO4 (stereo partly specified) | 12.5 µM | > 62 µM | 2.55 µM | 17.7 µM | 2.13 µM | > 74.5 µM | 0.472 µM | 16.8 µM | 1.75 µM | 37.9 µM | 0.629 µM | 18.1 µM | 0.189 µM | > 100 µM | 0.457 µM | 20.8 µM | 0.711 µM | > 91 µM | > 100 µM | 10.7 µM
COC(=O)c1cccc2c1Oc1ccccc1S2 | – | > 100 µM | – | > 100 µM | – | > 100 µM | – | > 100 µM | – | 70 µM | – | > 100 µM | – | > 100 µM | – | > 100 µM | – | > 100 µM | > 100 µM | –
OCCCCC#Cc1ccccc1C#Cc1cccs1 | 13 µM | 26.5 µM | 16.5 µM | 30.5 µM | – | – | 16.6 µM | 30.8 µM | 18.8 µM | 40.3 µM | 15 µM | 28.9 µM | 16.2 µM | 30.8 µM | 15.9 µM | 30.6 µM | 12.9 µM | 25.9 µM | 31.1 µM | 16.1 µM
O=C(Nc1ccc([N+](=O)[O-])cc1)c1cc2ccccc2cc1O | 0.939 µM | 8.69 µM | 0.575 µM | 12.5 µM | – | – | 0.321 µM | 1.64 µM | 0.675 µM | > 21.1 µM | 0.397 µM | 15.8 µM | 0.937 µM | 7.88 µM | 0.477 µM | > 27.5 µM | 0.336 µM | 1.45 µM | 27.8 µM | 0.405 µM
CO[C@@]12[C@H](COC(N)=O)C3=C(C(=O)C(C)=C(N)C3=O)N1C[C@@H]1N[C@@H]12 | 0.643 µM | – | 3.24 µM and 1.5 µM | 8.88 µM and 8.21 µM and 5.97 µM | 1.09 µM | 4.08 µM and 12.2 µM and 2.06 µM | 2.14 µM and 2.91 µM and 1.53 µM | 6.92 µM and 12.7 µM and 15.3 µM | 0.271 µM | – | 5.79 µM and 3.66 µM | 8.8 µM and 14.4 µM and 34.4 µM | 2.65 µM and 4.99 µM | 17.4 µM and 20 µM and 25.7 µM | 0.665 µM | 13 µM and 9.44 µM and 24.2 µM | 0.952 µM | 2.64 µM and 7.74 µM and 2.19 µM | – | –
CCCCCCCCCCC(CN(CC)CC)C(O)c1ccccc1 (stereo unspecified) | – | – | 1.82 µM | 3.51 µM | 1.74 µM | 3.4 µM | 1.72 µM | 3.23 µM | 2.25 µM | 5.8 µM | 1.99 µM | 3.78 µM | 1.62 µM | 3.13 µM | 1.8 µM | 3.43 µM | 1.78 µM | 3.46 µM | 3.77 µM | 1.86 µM
